Data reported in EP4745135A1 (Gluetacs Therapeutics (Shanghai) Co., Ltd., priority 2023, dated 2025).

Tests used:
[1] = target: T1, human Cereblon WT GST-tagged protein (Homo sapiens, UniProt Q96SW2); assay: CRBN-binding affinity, HTRF (CEREBLON BINDING kit); conditions: for inhibition at 0.5 µM: read-out: Inhibition Rate at 0.5 µM (%); for inhibition at 2 µM: read-out: Inhibition Rate at 2 µM (%)
T1 construct: purchased CISBIO 64BDCRBNPEH

GSPT1 = assay: Western blot, degradation of substrate protein in hPBMCs; assay type: cell-based, Human; conditions: Western blot, 24 hours of compound treatment, compounds tested at 50 nM and 500 nM (concentration for the table not stated)
IKZF3 = target: T2, IKZF3 (Homo sapiens, UniProt Q96SW2+Q9UKT9); assay: as above; assay type: cell-based; conditions: Western blot, 24 hours of compound treatment, compounds tested at 50 nM and 500 nM (concentration for the table not stated)
T2 construct: effects of the compounds of the present disclosure on the expression of target proteins in cells; endogenous in cells; host or cells: human PBMCs (Milecell Biotechnologies)
T2 sequence (Q9UKT9 whole entry): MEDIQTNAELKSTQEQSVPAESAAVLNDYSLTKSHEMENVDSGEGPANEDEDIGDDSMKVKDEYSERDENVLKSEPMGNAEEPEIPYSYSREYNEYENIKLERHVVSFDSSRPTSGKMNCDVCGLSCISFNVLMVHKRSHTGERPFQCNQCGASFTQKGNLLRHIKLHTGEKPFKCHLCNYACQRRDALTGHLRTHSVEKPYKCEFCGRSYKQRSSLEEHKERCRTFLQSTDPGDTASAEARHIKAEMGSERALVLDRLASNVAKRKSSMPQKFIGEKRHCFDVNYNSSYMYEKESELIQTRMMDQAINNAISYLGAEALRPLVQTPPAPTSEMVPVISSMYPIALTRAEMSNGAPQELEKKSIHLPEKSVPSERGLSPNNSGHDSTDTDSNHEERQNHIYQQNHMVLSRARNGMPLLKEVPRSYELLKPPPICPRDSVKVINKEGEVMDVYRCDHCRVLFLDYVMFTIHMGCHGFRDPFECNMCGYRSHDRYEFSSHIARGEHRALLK
T2 sequence (Q96SW2 whole entry): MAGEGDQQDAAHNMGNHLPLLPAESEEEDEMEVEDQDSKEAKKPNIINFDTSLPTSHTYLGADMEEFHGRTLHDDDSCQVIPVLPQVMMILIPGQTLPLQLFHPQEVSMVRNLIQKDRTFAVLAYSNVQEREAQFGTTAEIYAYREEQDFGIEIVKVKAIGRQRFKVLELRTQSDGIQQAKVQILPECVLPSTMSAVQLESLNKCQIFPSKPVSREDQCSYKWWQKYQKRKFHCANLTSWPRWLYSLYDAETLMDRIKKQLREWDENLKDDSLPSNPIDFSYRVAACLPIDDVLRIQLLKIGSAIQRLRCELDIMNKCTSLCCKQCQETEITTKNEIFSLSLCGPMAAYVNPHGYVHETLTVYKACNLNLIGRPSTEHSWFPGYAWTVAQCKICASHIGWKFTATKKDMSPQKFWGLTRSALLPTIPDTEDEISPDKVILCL
T2 sequence (Q16531 whole entry partner): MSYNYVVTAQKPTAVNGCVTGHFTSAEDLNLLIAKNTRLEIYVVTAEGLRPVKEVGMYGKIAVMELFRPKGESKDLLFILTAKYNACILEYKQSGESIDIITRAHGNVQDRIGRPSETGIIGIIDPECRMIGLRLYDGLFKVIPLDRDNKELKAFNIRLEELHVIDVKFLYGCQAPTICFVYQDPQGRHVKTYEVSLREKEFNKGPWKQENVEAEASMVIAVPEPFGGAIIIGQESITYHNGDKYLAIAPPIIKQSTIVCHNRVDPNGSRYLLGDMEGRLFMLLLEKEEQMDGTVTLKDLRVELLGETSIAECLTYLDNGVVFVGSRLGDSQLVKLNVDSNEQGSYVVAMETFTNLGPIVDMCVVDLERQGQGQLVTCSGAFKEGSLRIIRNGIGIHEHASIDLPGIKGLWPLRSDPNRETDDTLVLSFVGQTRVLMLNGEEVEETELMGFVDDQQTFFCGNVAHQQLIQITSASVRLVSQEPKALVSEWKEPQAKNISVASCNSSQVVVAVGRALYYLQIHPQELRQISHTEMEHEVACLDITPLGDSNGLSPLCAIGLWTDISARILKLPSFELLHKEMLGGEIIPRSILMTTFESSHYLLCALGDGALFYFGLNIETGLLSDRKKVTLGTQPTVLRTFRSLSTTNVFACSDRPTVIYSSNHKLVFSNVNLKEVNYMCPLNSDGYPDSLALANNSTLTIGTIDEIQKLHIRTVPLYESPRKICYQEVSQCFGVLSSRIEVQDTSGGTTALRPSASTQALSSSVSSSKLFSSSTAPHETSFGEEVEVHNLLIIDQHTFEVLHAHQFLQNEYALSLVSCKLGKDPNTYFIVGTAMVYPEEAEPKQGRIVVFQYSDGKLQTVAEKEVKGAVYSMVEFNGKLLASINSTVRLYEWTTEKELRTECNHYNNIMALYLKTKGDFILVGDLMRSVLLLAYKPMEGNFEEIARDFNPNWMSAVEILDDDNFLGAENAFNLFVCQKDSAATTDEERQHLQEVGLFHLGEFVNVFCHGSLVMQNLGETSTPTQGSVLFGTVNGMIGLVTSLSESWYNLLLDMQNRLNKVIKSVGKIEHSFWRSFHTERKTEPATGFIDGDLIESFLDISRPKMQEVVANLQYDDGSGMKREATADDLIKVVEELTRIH

WEE1 = target: T3, WEE1 (Homo sapiens, UniProt P30291+Q96SW2); assay: as above; assay type: cell-based; conditions: Western blot, 24 hours of compound treatment, compounds tested at 50 nM and 500 nM (concentration for the table not stated)
T3 construct: effects of the compounds of the present disclosure on the expression of target proteins in cells; endogenous in cells; host or cells: human PBMCs (Milecell Biotechnologies)
T3 sequence (P30291 whole entry): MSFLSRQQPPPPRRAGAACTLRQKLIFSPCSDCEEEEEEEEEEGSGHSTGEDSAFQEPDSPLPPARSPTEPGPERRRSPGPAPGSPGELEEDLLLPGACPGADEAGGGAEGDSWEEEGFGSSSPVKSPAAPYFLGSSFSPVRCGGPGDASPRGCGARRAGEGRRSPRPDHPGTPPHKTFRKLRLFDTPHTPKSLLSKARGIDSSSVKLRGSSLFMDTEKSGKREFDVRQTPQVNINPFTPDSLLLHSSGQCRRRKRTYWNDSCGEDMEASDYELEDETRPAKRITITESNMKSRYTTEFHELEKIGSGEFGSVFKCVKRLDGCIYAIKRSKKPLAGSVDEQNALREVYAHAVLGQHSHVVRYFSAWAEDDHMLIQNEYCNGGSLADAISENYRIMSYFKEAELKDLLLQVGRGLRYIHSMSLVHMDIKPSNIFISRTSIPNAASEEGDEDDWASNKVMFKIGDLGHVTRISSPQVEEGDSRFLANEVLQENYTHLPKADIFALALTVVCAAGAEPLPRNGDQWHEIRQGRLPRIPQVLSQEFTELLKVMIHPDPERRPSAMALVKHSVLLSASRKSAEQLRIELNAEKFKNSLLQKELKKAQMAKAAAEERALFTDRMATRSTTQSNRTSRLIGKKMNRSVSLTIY
T3 sequence (Q96SW2 whole entry): as the sequence (Q96SW2 whole entry) above
T3 sequence (Q16531 whole entry partner): as the sequence (Q16531 whole entry partner) above

IKZF2 = target: T4, IKZF2 (Homo sapiens, UniProt Q96SW2+Q9UKS7); assay: as above; assay type: cell-based; conditions: Western blot, 24 hours of compound treatment, compounds tested at 50 nM and 500 nM (concentration for the table not stated)
T4 construct: effects of the compounds of the present disclosure on the expression of target proteins in cells; endogenous in cells; host or cells: human PBMCs (Milecell Biotechnologies)
T4 sequence (Q9UKS7 whole entry): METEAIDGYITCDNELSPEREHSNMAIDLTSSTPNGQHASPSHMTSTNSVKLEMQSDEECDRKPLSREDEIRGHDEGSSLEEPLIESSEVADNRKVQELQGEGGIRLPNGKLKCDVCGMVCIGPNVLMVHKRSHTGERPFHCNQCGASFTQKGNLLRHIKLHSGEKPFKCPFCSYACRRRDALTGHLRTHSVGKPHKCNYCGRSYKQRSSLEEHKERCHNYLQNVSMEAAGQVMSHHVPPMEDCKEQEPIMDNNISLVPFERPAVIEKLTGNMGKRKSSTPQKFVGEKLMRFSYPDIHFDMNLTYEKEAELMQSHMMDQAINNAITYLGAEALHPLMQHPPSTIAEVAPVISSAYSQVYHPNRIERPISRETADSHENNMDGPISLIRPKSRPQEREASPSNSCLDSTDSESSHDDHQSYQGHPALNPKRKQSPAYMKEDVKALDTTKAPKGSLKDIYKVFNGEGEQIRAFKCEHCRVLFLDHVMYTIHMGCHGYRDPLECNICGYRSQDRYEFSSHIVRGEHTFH
T4 sequence (Q96SW2 whole entry): as the sequence (Q96SW2 whole entry) above
T4 sequence (Q16531 whole entry partner): as the sequence (Q16531 whole entry partner) above

CK1α = target: T5, CK1α (Homo sapiens, UniProt P48729+Q96SW2); assay: as above; assay type: cell-based; conditions: Western blot, 24 hours of compound treatment, compounds tested at 50 nM and 500 nM (concentration for the table not stated)
T5 construct: effects of the compounds of the present disclosure on the expression of target proteins in cells; endogenous in cells; host or cells: human PBMCs (Milecell Biotechnologies)
T5 sequence (P48729 whole entry): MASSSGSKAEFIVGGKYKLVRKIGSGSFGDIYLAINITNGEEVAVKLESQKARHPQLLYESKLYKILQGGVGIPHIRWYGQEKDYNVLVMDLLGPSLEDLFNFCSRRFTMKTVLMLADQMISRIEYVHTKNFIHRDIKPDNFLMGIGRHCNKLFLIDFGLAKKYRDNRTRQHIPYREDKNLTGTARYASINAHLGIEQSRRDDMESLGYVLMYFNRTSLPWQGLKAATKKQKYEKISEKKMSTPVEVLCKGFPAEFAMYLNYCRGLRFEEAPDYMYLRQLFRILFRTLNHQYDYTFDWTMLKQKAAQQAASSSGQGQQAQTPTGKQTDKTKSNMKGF
T5 sequence (Q96SW2 whole entry): as the sequence (Q96SW2 whole entry) above
T5 sequence (Q16531 whole entry partner): as the sequence (Q16531 whole entry partner) above

IKZF1 = target: T6, IKZF1 (Homo sapiens, UniProt Q13422+Q96SW2); assay: as above; assay type: cell-based; conditions: Western blot, 24 hours of compound treatment, compounds tested at 50 nM and 500 nM (concentration for the table not stated)
T6 construct: effects of the compounds of the present disclosure on the expression of target proteins in cells; endogenous in cells; host or cells: human PBMCs (Milecell Biotechnologies)
T6 sequence (Q13422 whole entry): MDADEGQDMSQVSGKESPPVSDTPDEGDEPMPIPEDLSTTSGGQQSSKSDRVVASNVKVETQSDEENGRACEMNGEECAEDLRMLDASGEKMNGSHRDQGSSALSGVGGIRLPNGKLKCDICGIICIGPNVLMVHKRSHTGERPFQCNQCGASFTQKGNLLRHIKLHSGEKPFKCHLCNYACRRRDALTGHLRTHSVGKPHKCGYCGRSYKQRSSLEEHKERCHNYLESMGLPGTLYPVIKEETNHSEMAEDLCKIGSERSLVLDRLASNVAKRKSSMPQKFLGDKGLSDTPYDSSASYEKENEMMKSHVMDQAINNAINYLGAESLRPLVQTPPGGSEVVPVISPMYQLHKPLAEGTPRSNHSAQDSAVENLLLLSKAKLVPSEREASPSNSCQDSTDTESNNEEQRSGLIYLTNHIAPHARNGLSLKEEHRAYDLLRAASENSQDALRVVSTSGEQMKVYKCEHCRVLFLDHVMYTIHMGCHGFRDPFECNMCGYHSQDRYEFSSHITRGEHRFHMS
T6 sequence (Q96SW2 whole entry): as the sequence (Q96SW2 whole entry) above
T6 sequence (Q16531 whole entry partner): as the sequence (Q16531 whole entry partner) above

T1 sequence (Q96SW2 whole entry): as the sequence (Q96SW2 whole entry) above

| SMILES | inhibition at 0.5 µM [1] | inhibition at 2 µM [1] | GSPT1 substrate protein remaining % (GSPT1) | IKZF3 substrate protein remaining % (IKZF3) | Wee1 substrate protein remaining % (WEE1) | IKZF2 substrate protein remaining % (IKZF2) | CK1α substrate protein remaining % (CK1α) | IKZF 1 substrate protein remaining % (IKZF1) |
| --- | --- | --- | --- | --- | --- | --- | --- | --- |
| Cc1ccc(N2CCN(Cc3cccc4c3CN(C3CCC(=O)NC3=O)C4=S)CC2)cc1 (stereo not shown) [GT-08499, 3-(1-thioxo-4-((4-(p-tolyl)piperazin-1-yl)methyl)isoindolin-2-yl)piperidine-2,6-dione] | 30 to 40% | 53 to 60% | A (0% ≤ substrate protein remaining % ≤ 80%) | B (80%< substrate protein remaining %≤ 100%) | A (0% ≤ substrate protein remaining % ≤ 80%) | A (0% ≤ substrate protein remaining % ≤ 80%) | B (80%< substrate protein remaining %≤ 100%) | B (80%< substrate protein remaining %≤ 100%) |
| O=C1CCC(N2Cc3c(CN4CCN(c5ccc(Cl)c(Cl)c5)CC4)cccc3C2=S)C(=O)N1 (stereo not shown) [GT-08502, 3-(4-((4-(3,4-dichlorophenyl)piperazin-1-yl)methyl)-1-thioxoisoindolin-2-yl)piperidine-2,6-dione] | 40 to 53% | 60 to 80% | A (0% ≤ substrate protein remaining % ≤ 80%) | B (80%< substrate protein remaining %≤ 100%) | A (0% ≤ substrate protein remaining % ≤ 80%) | A (0% ≤ substrate protein remaining % ≤ 80%) | B (80%< substrate protein remaining %≤ 100%) | B (80%< substrate protein remaining %≤ 100%) |
| O=C1CCC(N2Cc3c(CN4CCN(c5ccc(F)cc5F)CC4)cccc3C2=S)C(=O)N1 (stereo not shown) [GT-08503, 3-(4-((4-(2,4-difluorophenyl)piperazin-1-yl)methyl)-1-thioxoisoindolin-2-yl)piperidine-2,6-dione] | 40 to 53% | 60 to 80% | A (0% ≤ substrate protein remaining % ≤ 80%) | B (80%< substrate protein remaining %≤ 100%) | A (0% ≤ substrate protein remaining % ≤ 80%) | B (80%< substrate protein remaining %≤ 100%) | B (80%< substrate protein remaining %≤ 100%) | B (80%< substrate protein remaining %≤ 100%) |
| Cc1ccc(Cl)cc1N1CCN(Cc2cccc3c2CN(C2CCC(=O)NC2=O)C3=S)CC1 (stereo not shown) [GT-08505, 3-(4-((4-(5-chloro-2-methylphenyl)piperazin-1-yl)methyl)-1-thioxoisoindolin-2-yl)piperidine-2,6-dione] | 40 to 53% | 60 to 80% | B (80%< substrate protein remaining %≤ 100%) | A (0% ≤ substrate protein remaining % ≤ 80%) | A (0% ≤ substrate protein remaining % ≤ 80%) | B (80%< substrate protein remaining %≤ 100%) | B (80%< substrate protein remaining %≤ 100%) | B (80%< substrate protein remaining %≤ 100%) |
| O=C1CCC(N2Cc3c(CN4CCC(c5cccc(Br)c5)CC4)cccc3C2=S)C(=O)N1 (stereo not shown) [GT-08507, 3-(4-((4-(3-bromophenyl)piperidin-1-yl)methyl)-1-thioxoisoindolin-2-yl)piperidine-2,6-dione] | 40 to 53% | 60 to 80% | B (80%< substrate protein remaining %≤ 100%) | A (0% ≤ substrate protein remaining % ≤ 80%) | A (0% ≤ substrate protein remaining % ≤ 80%) | B (80%< substrate protein remaining %≤ 100%) | B (80%< substrate protein remaining %≤ 100%) | B (80%< substrate protein remaining %≤ 100%) |
| O=C1CCC(N2Cc3c(CN4CCC(c5ccc(Br)cc5)CC4)cccc3C2=S)C(=O)N1 (stereo not shown) [GT-08592, 3-(4-((4-(4-bromophenyl)piperidin-1-yl)methyl)-1-thioxoisoindolin-2-yl)piperidine-2,6-dione] | 40 to 53% | 60 to 80% | B (80%< substrate protein remaining %≤ 100%) | B (80%< substrate protein remaining %≤ 100%) | A (0% ≤ substrate protein remaining % ≤ 80%) | B (80%< substrate protein remaining %≤ 100%) | B (80%< substrate protein remaining %≤ 100%) | B (80%< substrate protein remaining %≤ 100%) |
| O=C1CCC(N2Cc3c(CN4CCN(c5cc(F)ccc5F)CC4)cccc3C2=S)C(=O)N1 (stereo not shown) [GT-08593, 3-(4-((4-(2,5-difluorophenyl)piperazin-1-yl)methyl)-1-thioxoisoindolin-2-yl)piperidine-2,6-dione] | 40 to 53% | 60 to 80% | B (80%< substrate protein remaining %≤ 100%) | B (80%< substrate protein remaining %≤ 100%) | A (0% ≤ substrate protein remaining % ≤ 80%) | B (80%< substrate protein remaining %≤ 100%) | B (80%< substrate protein remaining %≤ 100%) | B (80%< substrate protein remaining %≤ 100%) |
| O=C1CCC(N2Cc3c(CN4CCC(c5ccc(Cl)cc5)CC4)cccc3C2=S)C(=O)N1 (stereo not shown) [GT-08594, 3-(4-((4-(4-chlorophenyl)piperidin-1-yl)methyl)-1-thioxoisoindolin-2-yl)piperidine-2,6-dione] | 30 to 40% | 53 to 60% | B (80%< substrate protein remaining %≤ 100%) | B (80%< substrate protein remaining %≤ 100%) | A (0% ≤ substrate protein remaining % ≤ 80%) | A (0% ≤ substrate protein remaining % ≤ 80%) | B (80%< substrate protein remaining %≤ 100%) | B (80%< substrate protein remaining %≤ 100%) |
| O=C1CCC(N2Cc3c(CN4CCC(c5ccccc5C(F)(F)F)CC4)cccc3C2=S)C(=O)N1 (stereo not shown) [GT-08598, 3-(1-thioxo-4-((4-(2-(trifluoromethyl)phenyl)piperidin-1-yl)methyl)isoindolin-2-yl)piperidine-2,6-dione] | 40 to 53% | 60 to 80% | A (0% ≤ substrate protein remaining % ≤ 80%) | B (80%< substrate protein remaining %≤ 100%) | A (0% ≤ substrate protein remaining % ≤ 80%) | B (80%< substrate protein remaining %≤ 100%) | B (80%< substrate protein remaining %≤ 100%) | B (80%< substrate protein remaining %≤ 100%) |
| O=C1CCC(N2Cc3c(CN4CCC(c5cccc(C(F)(F)F)c5)CC4)cccc3C2=S)C(=O)N1 (stereo not shown) [GT-08599, 3-(1-thioxo-4-((4-(3-(trifluoromethyl)phenyl)piperidin-1-yl)methyl)isoindolin-2-yl)piperidine-2,6-dione] | 30 to 40% | 60 to 80% | B (80%< substrate protein remaining %≤ 100%) | B (80%< substrate protein remaining %≤ 100%) | A (0% ≤ substrate protein remaining % ≤ 80%) | B (80%< substrate protein remaining %≤ 100%) | B (80%< substrate protein remaining %≤ 100%) | B (80%< substrate protein remaining %≤ 100%) |
| Cc1ccccc1N1CCN(Cc2ccc3c(c2)CN(C2CCC(=O)NC2=O)C3=S)CC1 (stereo not shown) [GT-08601, 3-(1-thioxo-5-((4-(o-tolyl)piperazin-1-yl)methyl)isoindolin-2-yl)piperidine-2,6-dione] | 40 to 53% | 80 to 100% | A (0% ≤ substrate protein remaining % ≤ 80%) | B (80%< substrate protein remaining %≤ 100%) | B (80%< substrate protein remaining %≤ 100%) | B (80%< substrate protein remaining %≤ 100%) | B (80%< substrate protein remaining %≤ 100%) | B (80%< substrate protein remaining %≤ 100%) |
